From US11572399B2, “Long-acting GIP peptide analogues” (University of Copenhagen, priority 2017, dated 2023)
Like-named read-outs stand apart in the source and are kept apart here. Peptide text beside a SMILES is read from it. * marks the point of attachment. Lauroyl = CCCCCCCCCCCC(=O)*

Assays:
[1] = target: T1, human GIP receptor (Homo sapiens, UniProt P48546); assay: cAMP accumulation assay, agonism (ligand alone); format: cell-based; conditions: COS-7 cells, Table 1; for Emax: COS-7, intrinsic cAMP activity
T1 construct: host or cells: COS-7, transient transfection (calcium phosphate), cDNA in pCMV-Script
T1 sequence (P48546 22-466): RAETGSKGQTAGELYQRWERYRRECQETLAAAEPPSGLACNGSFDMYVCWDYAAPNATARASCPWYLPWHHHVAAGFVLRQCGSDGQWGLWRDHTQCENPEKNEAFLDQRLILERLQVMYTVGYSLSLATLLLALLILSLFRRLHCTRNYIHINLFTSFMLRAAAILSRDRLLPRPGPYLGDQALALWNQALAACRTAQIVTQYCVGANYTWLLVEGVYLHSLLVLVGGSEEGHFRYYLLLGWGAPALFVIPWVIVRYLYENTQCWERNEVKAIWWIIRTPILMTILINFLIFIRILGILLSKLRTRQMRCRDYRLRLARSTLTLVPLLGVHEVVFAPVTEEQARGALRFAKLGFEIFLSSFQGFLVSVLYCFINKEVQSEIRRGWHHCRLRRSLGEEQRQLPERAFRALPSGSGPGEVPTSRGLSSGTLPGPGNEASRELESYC

[2] = target: T1, human GIP receptor; assay: 125I-human GIP competition binding assay, in the presence and absence of 2% HSA; conditions: for Fold change HSA (2%)/Casein (0.1%): IC50 (plus HSA)/IC50 (minus HSA);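 on all read-outs here: nonspecific binding taken as radioligand bound to untransfected cells, IC50 obtained from nonlinear regression fits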
[3] = heterologous competition binding, transiently transfected COS-7 cells expressing the human GIP receptor, read-out: Binding
[4] = binding in 0.1% casein (absence of HSA), log value, read-out: logIC50 0.1% casein (converted)

| Compound | Emax [1] | EC50 ([1]; read-out: cAMP agonism nM (EC50)) | IC50 ([2]; Table 3b, initial data, read-out: Binding IC50) | Binding fold (paired) ([2]; fold decrease in affinity compared to GIP(3-30)NH2, Table 3b) | IC50 [2, 3] | Fold change in affinity, IC50 (plus HSA)/IC50 (minus HSA) ([2]; presence vs absence of 2% HSA, proxy for albumin binding) | Fold change HSA (2%)/Casein (0.1%) [2] | IC50 [2, 4] | IC50 ([2]; heterologous competition binding, transiently transfected COS-7 cells expressing the human GIP receptor, log value of the nM column, read-out: Binding log (converted)) |
| --- | --- | --- | --- | --- | --- | --- | --- | --- | --- |
| CCCCCCCCCCCCCCCCCC(=O)N[C@@H](CCC(=O)O)C(=O)NCC(=O)N[C@H](C(=O)N[C@@H](Cc1ccccc1)C(=O)N[C@H](C(=O)N[C@@H](CO)C(=O)N[C@@H](CC(=O)O)C(=O)N[C@@H](Cc1ccc(O)cc1)C(=O)N[C@@H](CO)C(=O)N[C@H](C(=O)N[C@@H](C)C(=O)N[C@@H](CCSC)C(=O)N[C@@H](CC(=O)O)C(=O)N[C@@H](CCCCN)C(=O)N[C@H](C(=O)N[C@@H](Cc1c[nH]cn1)C(=O)N[C@@H](CCC(N)=O)C(=O)N[C@@H](CCC(N)=O)C(=O)N[C@@H](CC(=O)O)C(=O)N[C@@H](Cc1ccccc1)C(=O)N[C@H](C(=O)N[C@@H](CC(N)=O)C(=O)N[C@@H](Cc1c[nH]c2ccccc12)C(=O)N[C@@H](CC(C)C)C(=O)N[C@@H](CC(C)C)C(=O)N[C@@H](C)C(=O)N[C@@H](CCC(N)=O)C(=O)N[C@@H](CCCCN)C(N)=O)C(C)C)[C@@H](C)CC)[C@@H](C)CC)[C@@H](C)CC)[C@@H](C)O [AT113, [hGIP(3-30)NH2—C18/3]] | 77% | 9.9 nM | 41400 nM | 16380 fold | 41400 nM | – | – | – | – |
| CCCCCCCCCCCC(=O)NCCCC[C@H](NC(=O)[C@@H](NC(=O)[C@H](CCCCN)NC(=O)[C@H](CC(=O)O)NC(=O)[C@H](CCSC)NC(=O)[C@H](C)NC(=O)[C@@H](NC(=O)[C@H](CO)NC(=O)[C@H](Cc1ccc(O)cc1)NC(=O)[C@H](CC(=O)O)NC(=O)[C@H](CO)NC(=O)[C@@H](NC(=O)[C@H](Cc1ccccc1)NC(=O)[C@@H](NC(=O)CNC(=O)[C@@H](N)CCC(=O)O)[C@@H](C)O)[C@@H](C)CC)[C@@H](C)CC)[C@@H](C)CC)C(=O)N[C@@H](CCC(N)=O)C(=O)N[C@@H](CCC(N)=O)C(=O)N[C@@H](CC(=O)O)C(=O)N[C@@H](Cc1ccccc1)C(=O)N[C@H](C(=O)N[C@@H](CC(N)=O)C(=O)N[C@@H](Cc1c[nH]c2ccccc12)C(=O)N[C@@H](CC(C)C)C(=O)N[C@@H](CC(C)C)C(=O)N[C@@H](C)C(=O)N[C@@H](CCC(N)=O)C(=O)N[C@@H](CCCCN)C(N)=O)C(C)C [AT116, [hGIP(3-30)NH2—C12/18]] (H-EGTFISDYSIAMDKIK(Lauroyl)QQDFVNWLLAQK-NH2; N-terminus assumed) | 0% | – | – | – | – | 5.2 fold | – | – | – |
| CCCCCCCCCCCCCC(=O)NCCCC[C@H](NC(=O)[C@H](CC(=O)O)NC(=O)[C@H](CCSC)NC(=O)[C@H](C)NC(=O)[C@@H](NC(=O)[C@H](CO)NC(=O)[C@H](Cc1ccc(O)cc1)NC(=O)[C@H](CC(=O)O)NC(=O)[C@H](CO)NC(=O)[C@@H](NC(=O)[C@H](Cc1ccccc1)NC(=O)[C@@H](N)[C@@H](C)O)[C@@H](C)CC)[C@@H](C)CC)C(=O)N[C@H](C(=O)N[C@@H](Cc1c[nH]cn1)C(=O)N[C@@H](CCC(N)=O)C(=O)N[C@@H](CCC(N)=O)C(=O)N[C@@H](CC(=O)O)C(=O)N[C@@H](Cc1ccccc1)C(=O)N[C@H](C(=O)N[C@@H](CC(N)=O)C(=O)N[C@@H](Cc1c[nH]c2ccccc12)C(=O)N[C@@H](CC(C)C)C(=O)N[C@@H](CC(C)C)C(=O)N[C@@H](C)C(=O)N[C@@H](CCC(N)=O)C(=O)N[C@@H](CCCCN)C(N)=O)C(C)C)[C@@H](C)CC [AT122, [hGIP(5-30)NH2—C14/16]] | 0% | – | – | – | – | – | 4.9 | 1260 nM | – |
| CCCCCCCCCCCCCCCC(=O)N[C@H](C(=O)N[C@@H](Cc1ccccc1)C(=O)N[C@H](C(=O)N[C@@H](CO)C(=O)N[C@@H](CC(=O)O)C(=O)N[C@@H](Cc1ccc(O)cc1)C(=O)N[C@@H](CO)C(=O)N[C@H](C(=O)N[C@@H](C)C(=O)N[C@@H](CCSC)C(=O)N[C@@H](CC(=O)O)C(=O)N[C@@H](CCCCN)C(=O)N[C@H](C(=O)N[C@@H](Cc1c[nH]cn1)C(=O)N[C@@H](CCC(N)=O)C(=O)N[C@@H](CCC(N)=O)C(=O)N[C@@H](CC(=O)O)C(=O)N[C@@H](Cc1ccccc1)C(=O)N[C@H](C(=O)N[C@@H](CC(N)=O)C(=O)N[C@@H](Cc1c[nH]c2ccccc12)C(=O)N[C@@H](CC(C)C)C(=O)N[C@@H](CC(C)C)C(=O)N[C@@H](C)C(=O)N[C@@H](CCC(N)=O)C(=O)N[C@@H](CCCCN)C(N)=O)C(C)C)[C@@H](C)CC)[C@@H](C)CC)[C@@H](C)CC)[C@@H](C)O [AT124, [hGIP(5-30)NH2—C16/5]] | 0% | – | – | – | – | – | 5.2 | 1580 nM | – |
| CCCCCCCCCCCCCCCCCC(=O)N[C@H](C(=O)N[C@@H](Cc1ccccc1)C(=O)N[C@H](C(=O)N[C@@H](CO)C(=O)N[C@@H](CC(=O)O)C(=O)N[C@@H](Cc1ccc(O)cc1)C(=O)N[C@@H](CO)C(=O)N[C@H](C(=O)N[C@@H](C)C(=O)N[C@@H](CCSC)C(=O)N[C@@H](CC(=O)O)C(=O)N[C@@H](CCCCN)C(=O)N[C@H](C(=O)N[C@@H](Cc1c[nH]cn1)C(=O)N[C@@H](CCC(N)=O)C(=O)N[C@@H](CCC(N)=O)C(=O)N[C@@H](CC(=O)O)C(=O)N[C@@H](Cc1ccccc1)C(=O)N[C@H](C(=O)N[C@@H](CC(N)=O)C(=O)N[C@@H](Cc1c[nH]c2ccccc12)C(=O)N[C@@H](CC(C)C)C(=O)N[C@@H](CC(C)C)C(=O)N[C@@H](C)C(=O)N[C@@H](CCC(N)=O)C(=O)N[C@@H](CCCCN)C(N)=O)C(C)C)[C@@H](C)CC)[C@@H](C)CC)[C@@H](C)CC)[C@@H](C)O [AT127, [hGIP(5-30)NH2—C18/5]] | 0% | – | – | – | – | – | 0.0 | 1580 nM | – |
| CCCCCCCCCCCCCCCCCC(=O)NCCCC[C@H](NC(=O)[C@H](CCC(N)=O)NC(=O)[C@H](C)NC(=O)[C@H](CC(C)C)NC(=O)[C@H](CC(C)C)NC(=O)[C@H](Cc1c[nH]c2ccccc12)NC(=O)[C@H](CC(N)=O)NC(=O)[C@@H](NC(=O)[C@H](Cc1ccccc1)NC(=O)[C@H](CC(=O)O)NC(=O)[C@H](CCC(N)=O)NC(=O)[C@H](CCC(N)=O)NC(=O)[C@H](Cc1c[nH]cn1)NC(=O)[C@@H](NC(=O)[C@H](CCCCN)NC(=O)[C@H](CC(=O)O)NC(=O)[C@H](CCSC)NC(=O)[C@H](C)NC(=O)[C@@H](NC(=O)[C@H](CO)NC(=O)[C@H](Cc1ccc(O)cc1)NC(=O)[C@H](CC(=O)O)NC(=O)[C@H](CO)NC(=O)[C@@H](NC(=O)[C@H](Cc1ccccc1)NC(=O)[C@@H](N)[C@@H](C)O)[C@@H](C)CC)[C@@H](C)CC)[C@@H](C)CC)C(C)C)C(N)=O [AT129, [hGIP(5-30)NH2—C18/30]] | 0% | – | – | – | – | – | – | – | 126000 nM |
| CC[C@H](C)[C@H](NC(=O)[C@H](CO)NC(=O)[C@H](Cc1ccc(O)cc1)NC(=O)[C@H](CC(=O)O)NC(=O)[C@H](CO)NC(=O)[C@@H](NC(=O)[C@H](Cc1ccccc1)NC(=O)[C@@H](N)[C@@H](C)O)[C@@H](C)CC)C(=O)N[C@@H](C)C(=O)N[C@@H](CCSC)C(=O)N[C@@H](CC(=O)O)C(=O)N[C@@H](CCCCNC(=O)CCCCCCCCCCCCC(=O)O)C(=O)N[C@H](C(=O)N[C@@H](Cc1c[nH]cn1)C(=O)N[C@@H](CCC(N)=O)C(=O)N[C@@H](CCC(N)=O)C(=O)N[C@@H](CC(=O)O)C(=O)N[C@@H](Cc1ccccc1)C(=O)N[C@H](C(=O)N[C@@H](CC(N)=O)C(=O)N[C@@H](Cc1c[nH]c2ccccc12)C(=O)N[C@@H](CC(C)C)C(=O)N[C@@H](CC(C)C)C(=O)N[C@@H](C)C(=O)N[C@@H](CCC(N)=O)C(=O)N[C@@H](CCCCN)C(N)=O)C(C)C)[C@@H](C)CC [AT139, [hGIP(5-30)NH2—C14diacid/16]] | 0% | – | – | – | 153 nM | – | 2.6 | 158 nM | – |
| CC[C@H](C)[C@H](NC(=O)[C@H](CO)NC(=O)[C@H](Cc1ccc(O)cc1)NC(=O)[C@H](CC(=O)O)NC(=O)[C@H](CO)NC(=O)[C@@H](NC(=O)[C@H](Cc1ccccc1)NC(=O)[C@@H](N)[C@@H](C)O)[C@@H](C)CC)C(=O)N[C@@H](C)C(=O)N[C@@H](CCSC)C(=O)N[C@@H](CC(=O)O)C(=O)N[C@@H](CCCCNC(=O)CCCCCCCCCCCCCCCCC(=O)O)C(=O)N[C@H](C(=O)N[C@@H](Cc1c[nH]cn1)C(=O)N[C@@H](CCC(N)=O)C(=O)N[C@@H](CCC(N)=O)C(=O)N[C@@H](CC(=O)O)C(=O)N[C@@H](Cc1ccccc1)C(=O)N[C@H](C(=O)N[C@@H](CC(N)=O)C(=O)N[C@@H](Cc1c[nH]c2ccccc12)C(=O)N[C@@H](CC(C)C)C(=O)N[C@@H](CC(C)C)C(=O)N[C@@H](C)C(=O)N[C@@H](CCC(N)=O)C(=O)N[C@@H](CCCCN)C(N)=O)C(C)C)[C@@H](C)CC [AT141, [hGIP(5-30)NH2—C18diacid/16]] | 0% | – | – | – | 1900 nM | – | 6.5 | 2000 nM | – |
